# Assay results published in publication PMC10673995, “Discovery of a novel cardiac-specific myosin modulator using artificial intelligence-based virtual screening” (Nature Communications, 2023).
# Values joined by “and” are separate entries in the source; they are usually repeats but may differ in a detail not shown here. Identical values can stand only once.
# Tests used:
# [1] = biological target: bovine cardiac myofibrils (Bos taurus, UniProt Q9BE39); assay: mant-ATP chase single nucleotide turnover, cardiac myofibrils;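 note: bovine cardiac myofibrils at 1 mg/mL in PIPES buffer, 20 µM mant-ATP aged 1 min then chased with 20 mM ATP, fluorescence (ex 360, em 450 nm) read every second for 15 min at 25 °C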
# [2] = biological target: T1, synthetic thick filaments formed from purified full-length bovine β-cardiac myosin (Bos taurus, UniProt Q9BE39); assay: mant-ATP chase single nucleotide turnover, synthetic thick filaments; type: biochemical; settings: for Representative Traces (mant-ATP chase, fluorescence signal over time): Figure 3b
# T1 construct: diluting full-length bovine cardiac myosin stock into assay buffer; from tissue; host or cells: bovine cardiac muscle (the text says isolated/purified and describes no preparation)
# Description: We used systems of increasing complexity ranging from the isolated cardiac myosin motor domains (Fig. 3a) to synthetic thick filaments formed from purified full-length bovine cardiac myosin (Fig. 3b) and bovine cardiac myofibrils as substrates in the chase assays (Fig. 3c). In contrast to the isolated myosin motors, synthetic thick filaments contain two myosin head domains per molecule connected via their coiled-coil tail.
# Synthetic thick filaments were freshly prepared by diluting full-length bovine cardiac myosin stock into assay buffer (composition in mmol L^−1: 15 PIPES pH 7, 5 MgCl2, 1 DTT) and incubation on ice for 2 h. Bovine myosin S1 and synthetic thick filament concentrations were adjusted to 0.4 μmol L^−1 with assay buffer and 40 μL aliquoted into individual wells of a black 384-well plate (Greiner). Mant-ATP (JenaBioscience) was added to each well to a final concentration of 0.4 μmol L^−1 using an automated injector unit in a ClarioStar Plate Reader (BMG LabTech) and the system was allowed to age for 1 min. The chase phase was started by adding a final concentration of 2 mmol L^−1 ATP using a second automated injector unit. Fluorescence intensity from each well was constantly measured for 15 min every 1 sec at 25 °C with the following settings: excitation at 360 nm with a 20 nm bandwidth and emission at 450 nm with a 20 nm bandwidth. For experiments with cardiac myofibrils the concentration was adjusted to 1 mg m L^−1, and the mant-ATP and ATP concentrations were increased to 20 μmol L^−1 and 20 mmol L^−1, respectively.
# [3] = Cardiac myofibrils, individual replicates
# [4] = Synthetic Myosin Filaments, individual replicates
# T1 sequence (Q9BE39 whole entry): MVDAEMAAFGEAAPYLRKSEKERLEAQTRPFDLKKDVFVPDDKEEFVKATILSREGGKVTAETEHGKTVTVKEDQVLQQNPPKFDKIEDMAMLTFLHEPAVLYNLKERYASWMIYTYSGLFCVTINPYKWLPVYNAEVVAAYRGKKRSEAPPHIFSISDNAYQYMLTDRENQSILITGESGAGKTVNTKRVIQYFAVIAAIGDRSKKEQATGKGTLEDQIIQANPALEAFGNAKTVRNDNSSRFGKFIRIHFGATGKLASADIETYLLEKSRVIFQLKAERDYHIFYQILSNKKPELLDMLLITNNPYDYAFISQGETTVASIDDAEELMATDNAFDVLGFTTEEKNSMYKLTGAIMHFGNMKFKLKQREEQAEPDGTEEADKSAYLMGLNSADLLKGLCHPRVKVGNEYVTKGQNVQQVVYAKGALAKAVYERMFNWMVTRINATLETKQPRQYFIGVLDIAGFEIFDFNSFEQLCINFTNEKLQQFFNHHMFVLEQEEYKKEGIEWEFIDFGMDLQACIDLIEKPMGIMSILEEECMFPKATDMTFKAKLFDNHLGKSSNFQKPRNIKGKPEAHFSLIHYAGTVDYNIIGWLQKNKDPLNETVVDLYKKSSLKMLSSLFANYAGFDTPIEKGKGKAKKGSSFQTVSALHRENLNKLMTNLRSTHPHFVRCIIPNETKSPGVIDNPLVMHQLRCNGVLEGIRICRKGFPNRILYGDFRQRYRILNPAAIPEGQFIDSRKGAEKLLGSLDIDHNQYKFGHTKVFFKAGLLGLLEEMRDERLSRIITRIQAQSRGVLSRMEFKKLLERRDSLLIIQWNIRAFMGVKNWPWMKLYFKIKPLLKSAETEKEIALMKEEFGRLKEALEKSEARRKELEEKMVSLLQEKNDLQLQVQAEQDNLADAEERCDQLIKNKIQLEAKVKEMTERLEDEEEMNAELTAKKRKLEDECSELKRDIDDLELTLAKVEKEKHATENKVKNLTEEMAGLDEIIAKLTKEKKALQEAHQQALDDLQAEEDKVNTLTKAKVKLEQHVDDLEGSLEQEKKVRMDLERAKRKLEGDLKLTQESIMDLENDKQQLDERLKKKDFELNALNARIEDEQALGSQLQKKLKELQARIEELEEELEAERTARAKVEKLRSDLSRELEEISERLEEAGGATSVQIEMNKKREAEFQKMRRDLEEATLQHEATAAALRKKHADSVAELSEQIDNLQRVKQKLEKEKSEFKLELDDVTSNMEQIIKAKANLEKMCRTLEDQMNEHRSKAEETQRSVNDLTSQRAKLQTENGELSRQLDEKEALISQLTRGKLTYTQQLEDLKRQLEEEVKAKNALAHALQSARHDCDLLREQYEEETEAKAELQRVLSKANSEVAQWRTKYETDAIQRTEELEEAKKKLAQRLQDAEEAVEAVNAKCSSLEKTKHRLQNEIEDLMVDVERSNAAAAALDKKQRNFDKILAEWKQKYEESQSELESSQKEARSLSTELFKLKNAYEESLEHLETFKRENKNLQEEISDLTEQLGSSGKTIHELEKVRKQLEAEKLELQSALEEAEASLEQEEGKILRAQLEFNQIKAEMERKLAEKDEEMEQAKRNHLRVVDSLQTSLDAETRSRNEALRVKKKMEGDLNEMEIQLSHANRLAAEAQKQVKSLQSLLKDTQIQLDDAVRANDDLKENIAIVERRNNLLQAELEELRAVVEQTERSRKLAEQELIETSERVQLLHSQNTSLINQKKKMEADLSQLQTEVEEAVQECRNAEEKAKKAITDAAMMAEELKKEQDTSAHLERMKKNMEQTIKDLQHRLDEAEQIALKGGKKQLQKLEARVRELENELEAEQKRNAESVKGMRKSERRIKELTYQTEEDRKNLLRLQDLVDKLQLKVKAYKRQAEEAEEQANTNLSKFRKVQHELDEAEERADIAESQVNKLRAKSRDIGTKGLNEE
# T1 sequence (P85100 whole entry partner): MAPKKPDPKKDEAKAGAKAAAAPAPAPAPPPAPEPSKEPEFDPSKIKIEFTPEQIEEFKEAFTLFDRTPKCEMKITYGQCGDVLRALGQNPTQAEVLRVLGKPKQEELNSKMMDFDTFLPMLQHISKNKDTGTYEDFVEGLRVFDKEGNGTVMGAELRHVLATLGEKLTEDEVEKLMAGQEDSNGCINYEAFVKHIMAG
# T1 sequence (Q3SZE5 whole entry partner): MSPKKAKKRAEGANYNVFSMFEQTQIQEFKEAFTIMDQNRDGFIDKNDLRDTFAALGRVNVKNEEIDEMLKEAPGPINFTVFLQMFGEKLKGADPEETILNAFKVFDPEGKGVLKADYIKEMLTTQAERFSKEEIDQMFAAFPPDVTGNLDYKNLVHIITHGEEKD
# Chain of bovine cardiac myofibrils (Q9BE39 whole entry): as the sequence (Q9BE39 whole entry) above
# Chain of bovine cardiac myofibrils (P85100 whole entry partner): as the sequence (P85100 whole entry partner) above
# Chain of bovine cardiac myofibrils (Q3SZE5 whole entry partner): as the sequence (Q3SZE5 whole entry partner) above
smiles,measurement,setting,value
CC(C)n1c(=O)cc(N[C@@H](C)c2ccccc2)[nH]c1=O [Mavacamten],effect on the rate of the fast phase,[1],no effect
same,kfast,"[1]; 2 μmol L^−1 Mavacamten or 20 μmol L^−1 F10, control 0.0719 ± 0.0193",0.0637 ± 0.0271 s⁻¹
same,kfast,[1]; [3],0.1448 s⁻¹ and 0.0188 s⁻¹ and 0.01818 s⁻¹ and 0.1128 s⁻¹ and 0.02375 s⁻¹
same,kslow,[1]; [3],0.005449 s⁻¹ and 0.0002437 s⁻¹ and 0.001429 s⁻¹ and 0.00295 s⁻¹ and 0.003851 s⁻¹
same,slow phase,[1]; [3],76.35% and 29.71% and 40.4% and 38.11% and 48.47%
same,Bar graph,"[1]; Figure 3c, individual replicates",76.35 and 29.71 and 40.4 and 38.11 and 48.47
same,Representative Traces,[1]; t [s] = 6,0.8107
same,Representative Traces,[1]; t [s] = 7,0.8334
same,Representative Traces,[1]; t [s] = 8,0.8024
same,Representative Traces,[1]; t [s] = 9,0.8319
same,Representative Traces,[1]; t [s] = 10,0.793
same,Representative Traces,[1]; t [s] = 11,0.7299
same,Representative Traces,[1]; t [s] = 12,0.7382
same,Representative Traces,[1]; t [s] = 13,0.7429
same,Representative Traces,[1]; t [s] = 14,0.7007
same,Representative Traces,[1]; t [s] = 96,0.4149
same,Representative Traces,[1]; t [s] = 97,0.3828
same,Representative Traces,[1]; t [s] = 98,0.3883
same,Representative Traces,[1]; t [s] = 99,0.382
same,Representative Traces,[1]; t [s] = 100,0.393
same,Representative Traces,[1]; t [s] = 101,0.411
same,Representative Traces,[1]; t [s] = 102,0.3936
same,Representative Traces,[1]; t [s] = 103,0.355
same,Representative Traces,[1]; t [s] = 104,0.403
same,Representative Traces,[1]; t [s] = 105,0.3774
same,Representative Traces,[1]; t [s] = 106,0.4119
same,Representative Traces,[1]; t [s] = 107,0.4038
same,Representative Traces,[1]; t [s] = 108,0.3884
same,Representative Traces,[1]; t [s] = 109,0.3828
same,Representative Traces,[1]; t [s] = 110,0.3991
same,Representative Traces,[1]; t [s] = 111,0.3974
same,Representative Traces,[1]; t [s] = 112,0.3704
same,Representative Traces,[1]; t [s] = 113,0.3729
same,Representative Traces,[1]; t [s] = 114,0.3757
same,Representative Traces,[1]; t [s] = 115,0.3708
same,Representative Traces,[1]; t [s] = 116,0.3829
same,Representative Traces,[1]; t [s] = 117,0.3692
same,Representative Traces,[1]; t [s] = 118,0.3929
same,Representative Traces,[1]; t [s] = 119,0.3896
same,Representative Traces,[1]; t [s] = 120,0.34
same,Representative Traces,[1]; t [s] = 121,0.3562
same,Representative Traces,[1]; t [s] = 122,0.3276
same,Representative Traces,[1]; t [s] = 123,0.3379
same,Representative Traces,[1]; t [s] = 124,0.3372
same,Representative Traces,[1]; t [s] = 125,0.3385
same,Representative Traces,[1]; t [s] = 126,0.3527
same,Representative Traces,[1]; t [s] = 127,0.3498
same,Representative Traces,[1]; t [s] = 128,0.3795
same,Representative Traces,[1]; t [s] = 129,0.3503
same,Representative Traces,[1]; t [s] = 130,0.3889
same,Representative Traces,[1]; t [s] = 131,0.3403
same,Representative Traces,[1]; t [s] = 132,0.3551
same,Representative Traces,[1]; t [s] = 133,0.3408
same,Representative Traces,[1]; t [s] = 134,0.3174
same,Representative Traces,[1]; t [s] = 135,0.3637
same,Representative Traces,[1]; t [s] = 136,0.3269
same,Representative Traces,[1]; t [s] = 137,0.3446
same,Representative Traces,[1]; t [s] = 138,0.322
same,Representative Traces,[1]; t [s] = 140,0.3437
same,Representative Traces,[1]; t [s] = 141,0.3145
same,Representative Traces,[1]; t [s] = 142,0.3341
same,Representative Traces,[1]; t [s] = 143,0.3342
same,Representative Traces,[1]; t [s] = 144,0.3241
same,Representative Traces,[1]; t [s] = 145,0.353
same,Representative Traces,[1]; t [s] = 146,0.3167
same,Representative Traces,[1]; t [s] = 147,0.3169
same,Representative Traces,[1]; t [s] = 150,0.3343
same,Representative Traces,[1]; t [s] = 151,0.3323
same,Representative Traces,[1]; t [s] = 152,0.3258
same,Representative Traces,[1]; t [s] = 153,0.3279
same,Representative Traces,[1]; t [s] = 154,0.3292
same,Representative Traces,[1]; t [s] = 155,0.3236
same,Representative Traces,[1]; t [s] = 156,0.3153
same,Representative Traces,[1]; t [s] = 157,0.312
same,Representative Traces,[1]; t [s] = 158,0.3484
same,Representative Traces,[1]; t [s] = 159,0.3282
same,Representative Traces,[1]; t [s] = 160,0.2877
same,Representative Traces,[1]; t [s] = 161,0.3298
same,Representative Traces,[1]; t [s] = 162,0.3159
same,Representative Traces,[1]; t [s] = 164,0.2984
same,Representative Traces,[1]; t [s] = 165,0.3474
same,Representative Traces,[1]; t [s] = 166,0.3344
same,Representative Traces,[1]; t [s] = 167,0.3033
same,Representative Traces,[1]; t [s] = 168,0.3319
same,Representative Traces,[1]; t [s] = 169,0.3401
same,Representative Traces,[1]; t [s] = 170,0.3298
same,Representative Traces,[1]; t [s] = 171,0.3174
same,Representative Traces,[1]; t [s] = 172,0.335
same,Representative Traces,[1]; t [s] = 173,0.2879
same,Representative Traces,[1]; t [s] = 174,0.2744
same,Representative Traces,[1]; t [s] = 175,0.3144
same,Representative Traces,[1]; t [s] = 177,0.3003
same,Representative Traces,[1]; t [s] = 180,0.3087
same,Representative Traces,[1]; t [s] = 181,0.2965
same,Representative Traces,[1]; t [s] = 182,0.2814
same,Representative Traces,[1]; t [s] = 183,0.3178
same,Representative Traces,[1]; t [s] = 184,0.3078
same,Representative Traces,[1]; t [s] = 185,0.2721
same,Representative Traces,[1]; t [s] = 186,0.3115
same,Representative Traces,[1]; t [s] = 187,0.2704
same,Representative Traces,[1]; t [s] = 188,0.2836
same,Representative Traces,[1]; t [s] = 189,0.2816
same,Representative Traces,[1]; t [s] = 190,0.2901
same,Representative Traces,[1]; t [s] = 191,0.3081
same,Representative Traces,[1]; t [s] = 192,0.2598
same,Representative Traces,[1]; t [s] = 193,0.2745
same,effect on the rate of the fast DRX phase,[2],no effect
same,"Bar graph (Figure 3b, mant-ATP chase)","[2]; Figure 3b source data, individual replicate values",77.58 and 71.76 and 78.3 and 63.78 and 62.87 and 75.77 and 68.24
same,"Representative Traces (mant-ATP chase, fluorescence signal over time)",[2]; t = 796 s,0.1167
same,"Representative Traces (mant-ATP chase, fluorescence signal over time)",[2]; t = 797 s,0.08985
same,"Representative Traces (mant-ATP chase, fluorescence signal over time)",[2]; t = 798 s,0.08985
same,kfast,[2]; [4],0.1528 s⁻¹ and 0.02969 s⁻¹ and 0.09681 s⁻¹ and 0.02631 s⁻¹ and 0.06313 s⁻¹ and 0.02802 s⁻¹
same,kslow,[2]; [4],0.001307 s⁻¹ and 0.001384 s⁻¹ and 0.002093 s⁻¹ and 0.003633 s⁻¹ and 0.005541 s⁻¹ and 0.004994 s⁻¹
same,slow phase,[2]; [4],71.76% and 78.3% and 63.78% and 62.87% and 75.77% and 68.24%
same,kslow,[2]; control 0.0046 ± 0.0007,0.0033 ± 0.0007 s⁻¹
same,kfast,[2]; control […],0.0593 ± 0.0188 s⁻¹
